Experimental data published in patent publication US9945860B2, “Nicotinamide adenine dinucleotide indicators, methods of preparation and application thereof” (East China University of Science and Technology, priority 2011, dated 2018).
Values joined by “and” are separate entries in the source; they are usually repeats but may differ in a detail not shown here. Equal entries are not always repeated.

Tests used:
[1] = tested on: NADH levels in mitochondria; test: Real-time detection of mitochondrial NADH when respiratory chain complexes are inhibited; assay type: cell-based; settings: for fluorescence (ex 485, em 528) of the sensor in mitochondria: treated for 30 min
Experimental: NADH that produced via glycolysis pathway and tricarboxylic acid cycle pathway will be oxidized by the oxidative phosphorylation pathway of mitochondrial respiratory chain, and then generate ATP to provide energy for various life activities. Fluorescent sensors for nicotinamide adenine dinucleotide were used to measure changes of NADH levels in mitochondria when various complexes in the respiratory chain were inhibited. […] Time interval between the figures was 1 min. The cells were observed before and after treatment under a laser scanning confocal microscope (Nikon, Japan). […].

293FT cells = test: Real-time measurement of intracellular NADH after adding external NADH to the culture medium; assay type: cell-based
Description: As described in Example 7, the fluorescence sensors for reduced nicotinamide adenine dinucleotide were expressed in different subcellular organelles of 293FT cells. […] Following the addition of external NADH into cell culture medium, transfected cells were observed under a laser scanning confocal microscope (Nikon, Japan). […] As to the control group in comparison, the cpYFP presented alone was not affected by extra NADH either. Therefore, effects of pH and the variation in cpYFP per se by environmental changes could be excluded. This series of sensors were further utilized to detect influences of extra NADH on other organelles, and observed that extra NADH could also increase the NADH levels in nucleus and mitochondria, the results for nucleus study are shown in FIG. 8-1B, and those for mitochondria study are shown in FIG. 8-1C.

[2] = Spectral characteristics of fluorescent sensors (excitation and emission spectra); assay type: physicochemical; settings: 10 μM sensor in 100 mM KPi, pH7.4
Experimental: The fluorescent sensors that prepared above were dissolved in assay buffer (100 mM KPi, pH7.4) to formulate fluorescent sensor solutions to a final concentration of 10 μM. Then their absorption spectra were measured using a Multi-functional Fluorescence Microplate Reader (Synergy2, Biotek) (FIG. 3A).
Their excitation and emission spectra were determined using a fluorescence spectrophotometer (Cary Eclipse Fluorescence spectrophotometer, Varian) (FIG. 3B).

H1299 tumor cells = test: In vivo imaging of NADH metabolism in H1299-superFrex tumors; set-up: species or system nude mice; settings: 300 μl sodium pyruvate (100 mM) via the tail vein
Experimental: H1299 tumor cells were transfected with pcDNA3.1-cyt-superFrex, and then screened under Hygromycin B for 2 weeks. […] Male nude mice of 5-6 weeks old were subcutaneously injected with 200 μl of H1299-superFrex cell suspension (1.0×10^7 cells) into their right armpits and housed for 3-4 weeks at SPF Animal facility, tumors in the nude mice grew to 0.6-1.0 cm. The nude mice were anaesthetized and then injected with 300 μl of sodium pyruvate (100 mM) via the tail vein. Effects of the agent on tumor metabolism were observed immediately with Kodak multifunctional vivo imaging system (Carestream, USA). […] Over time, pyruvate was gradually consumed metabolically, and the ratio of NADH/NAD^+ in tumor cells resumed the initial level (FIG. 12-C). In summary, superFrex, the fluorescent sensor for reduced/oxidized nicotinamide adenine dinucleotide ratio, works well in real-time monitoring of the NADH metabolism in tumor tissues.

[3] = tested on: NADH levels in different subcellular compartments; test: Real-time measurement of NADH levels regulated by glucose, pyruvate and lactate; assay type: cell-based
Description: Glycolysis is an important pathway of producing NADH and it plays a vital role in regulating intracellular NADH levels. The nicotinamide adenine dinucleotide fluorescent sensors were used to test how several important metabolites in this pathway, glucose, pyruvate and lactate, would influence the NADH levels in different subcellular compartments. […] As products of glycolysis pathway, pyruvate and lactate are presented in the cytoplasm with a dynamic balance between them. At increased intracellular levels of pyruvate, lactate dehydrogenase consumes NADH and produces lactate and NAD^+, and in turn, leads to the decrease of NADH levels in cytoplasm. At increased intracellular levels of lactate, lactate dehydrogenase consumes NAD^+ and produces pyruvate and NADH, and in turn, leads to the increase of NADH levels in cytoplasm.

O=C(O)CC[N+](=O)[O-] [3-NP]
NADH levels in mitochondria ([1]; NADH sensor expressed in mitochondria, 6-minute profile): greatly decline

NC(=O)C1=CN([C@@H]2O[C@H](COP(=O)(O)OP(=O)(O)OC[C@H]3O[C@@H](n4cnc5c(N)ncnc54)[C@H](O)[C@@H]3O)[C@@H](O)[C@H]2O)C=CC1 [NADH, reduced nicotinamide adenine dinucleotide]
intracellular NADH levels (293FT cells; external NADH added to medium): immediate increase | NADH levels in nucleus and mitochondria (293FT cells; extra NADH): increase

F-rex2: sensor from pRSETb-ydiH(189)-YFP-ydiH(190), Thermus aquaticus YdiH with cpYFP inserted, SEQ ID NO: 8
emission peak [2]: 518 nm | excitation peaks [2]: 410 nm and 500 nm | intensity of the latter excitation peak relative to the former [2]: about half

antimycin A
fluorescence (ex 485, em 528) of the sensor in mitochondria [1]: increased

cpYFP: circular permutation yellow fluorescent protein, control protein, SEQ ID NO: 22
effect of extra NADH on control protein presented alone (293FT cells; 293FT cells): not affected | control protein expressed in mitochondria upon 3-NP treatment ([1]; 6-minute profile): no obvious change | control tumor cells expressing cpYFP, change caused by pyruvate (H1299 tumor cells): no difference

CC(O)C(=O)O (stereo not drawn) [lactate]
NADH levels in cytoplasm [3]: rapid increase

C=C(C)[C@H]1Cc2c(ccc3c2O[C@@H]2COc4cc(OC)c(OC)cc4[C@@H]2C3=O)O1 [rotenone]
fluorescence (ex 485, em 528) of the sensor in mitochondria [1]: increased
